PMC11359702, “Synthesis and Biochemical Evaluation of Ethanoanthracenes and Related Compounds: Antiproliferative and Pro-Apoptotic Effects in Chronic Lymphocytic Leukemia (CLL)” (Pharmaceuticals, 2024)
Values joined by “and” are separate entries in the source; they are usually repeats but may differ in a detail not shown here. Identical values can stand only once.

Columns and labels:
[1] = system: cancer cells isolated from CLL patients; conditions: cancer cells isolated from CLL patients ref 39; cited from earlier work
CLL patients = system: CLL patients; parameters: method as in PMID 23291630, PMID 31160589; conditions: CLL patients ref 28,29; cited from earlier work
[2] = system: HG-3 and PGA-1 cell lines; assay: alamarBlue cell viability assay, mean of both CLL cell lines; type: cell-based, human; conditions: Homo sapiens, CLL cell; mean of HG-3 and PGA-1
HG-3 cells [3] = assay: LDH cytotoxicity assay (CytoTox 96); type: cell-based; conditions: HG-3, 10 µM, 24 h, lysis solution = 100%
Description: (§1) The lactate dehydrogenase (LDH) assay is used to assess the membrane integrity of cells as a function of the cytoplasmic LDH released. The loss of cell membrane integrity (due to cytotoxic insult) is detectable through LDH release into the cell growth medium. The assay is initiated via the reduction in cellular co-factor NAD^+ to NADH catalyzed via the LDH enzyme. Newly formed NADH catalyzes the acidic reduction in iodonitrotetrazolium chloride (INT) to the highly colored formazan (red) (mediated via the diaphorase enzyme). […] At the 10-µM treatment concentration, mild to moderate cytotoxicity (19–47%) was observed. […] Cytotoxicity remained low to mild at 1 µM (4–18%) with 23a displaying the lowest LDH release (4%).
(§2) Following the treatment of the HG-3 and PGA-1 cells at 10 µM for 24 hr, the amount of LDH released was determined using an LDH assay kit from Promega (G1780). Cell lysis solution = 100% cell lysis and LDH release). Data are presented as % cell death at a concentration of 10 µM. Cells were treated with ethanoanthracene compounds 20a, 20f, 23a and 25n (1 µM and 10 µM) for 24 h. Values are shown as the mean of three independent experiments.
(§3) The cytotoxicity of the selected compounds 20a, 20f, 23a and 25n was determined using the CytoTox 96 non-radioactive cytotoxicity assay (Promega Corporation; 2800 Woods Hollow Road, Madison, WI, USA). CLL cells HG-3 and PGA-1 were incubated for 24 h and then treated with the selected compounds 20a, 20f, 23a and 25n at 10-µM and 1-µM concentrations, following the protocol outlined above in the cell viability assay. After 24 h, the lysis solution (10×) (20 µL) was added, and the cells were incubated for a further 1 h to ensure complete cell death. Supernatant (50 µL) was removed from each well and transferred to a clean 96-well plate. “Substrate mix” (50 µL) was added, and the plate was stored in the dark at 20 °C for 30 min. “Stop solution” (50 µL) was added to each well, and the absorbance at 490 nm was recorded using a Dynatech MR5000 plate reader; the % cell death was determined relative to the control cell lysis solution.

PGA-1 cells [4] = assay: LDH cytotoxicity assay (CytoTox 96); type: cell-based; conditions: PGA-1, 10 µM, 24 h
Description: as §1, §2, §3

HG-3 cells [5] = assay: Annexin V/PI apoptosis assay (FACS); type: cell-based, human
Protocol: (§4) The pro-apoptotic effects of selected nitrovinylethanoanthracene compounds 20a and 20f and anthracene chalcones 23a and 25n in HG-3 cells and PGA-1 cells was then investigated using FITC (fluorescein isothiocyanate), Annexin V/PI (propidium iodide) and FACS (fluorescence-activated cell sorting) analysis to characterize the mode of cellular death induced. Apoptosis was assessed as % total apoptosis (total of early (Q3) and late (Q2) apoptosis).
(§5) CLL cells PGA-1 and HG-3 (1 × 10^6 cells/mL) were treated at 37 °C with either the vehicle (1% (v/v) DMSO) or the ethanoanthracene compounds 20a, 20f, 23a and 25n (10 µM, 5 µM and 1 µM) for 48 h, following the protocol previously described. The cells were then harvested via centrifugation at 400× g in a temperature-controlled Sorvall centrifuge. The cells were rinsed with Ca^2+ Annexin-V-binding buffer (0.1 M HEPES, pH 7.4; 0.14 M NaCl; 25 mM CaCl2, 0.5 mL). The samples were resuspended in FITC Annexin V (diluted 1:33 in Ca^2+ Annexin V-binding buffer, 50 µL) and incubated for 10 min (on ice and protected from light). The samples were washed with Annexin-V-binding buffer and resuspended in a PI solution (0.5 µg/mL, 500 µL) and analyzed within 1 h using a BD Accuri C6 flow cytometer counting 10,000 cells using the FlowJo software Version 10 (FlowJo LLC, Ashland, OR, USA).

PGA-1 cells [6] = assay: Annexin V/PI apoptosis assay (FACS); type: cell-based, human
Protocol: as §4, §5

[7] = system: healthy-donor peripheral blood mononuclear cells (PBMCs); assay: Annexin V/PI assay in donor PBMCs; type: cell-based; conditions: 0.34 and 0.68 µM, 48 h
Description: Whole blood samples from healthy donors (×5) were isolated, prepared and treated following the protocol previously described. The percentage of apoptosis observed in the treatment of isolated donor PBMCs with nitrovinylethanoanthracene 20a is concentration-dependent (Figure 11A). […] For ethanoanthracene 23a, the percentage of total apoptosis observed is illustrated in Figure 11B. […] The percentage of total apoptosis observed in the treatment of isolated donor PBMCs with the anthracene–chalcone 25n (normalized against vehicle 0.5% v/v DMSO) is illustrated in Figure 11C, and the dose-response behavior was also concentration-dependent, with compound 25n moderately toxic to healthy-donor PBMCs when treated at a 5.00 µM concentration (39%).
The human peripheral blood mononuclear cells (PBMCs) were generated as follows: peripheral blood was obtained from healthy donors (n = 2) after informed consent was received. The blood was then placed into a 50-mL falcon tube and diluted with an equal volume of phosphate-buffered saline (PBS). PBMCs were isolated using density-gradient centrifugation with LymphoPrep, as described previously. The cells were resuspended in RPMI media containing 10% FBS and 1% penicillin/streptomycin (P/S). The cells were counted using a haemocytometer and seeded into 96 well plates at a density of 1 × 10^5 cells/well (200 µL), and they were incubated at 37 °C for 1 h prior to compound treatment. The Annexin V/PI assay was used as a preliminary method of assessing the selective toxicity of the above compounds when compared with a previous alamarBlue cell viability assay in CLL cell lines. The assay was carried out as described above for the Annexin V/PI assay previously described above, and it was completed in triplicate on two independent days. Approval for this study was obtained from the School of Pharmacy and Pharmaceutical Sciences Trinity College Dublin Research Ethics Committee (2020-06-01-MS).

HG-3 cells [8] = assay: alamarBlue viability after pan-caspase inhibitor Z-VAD-FMK pre-treatment; type: cell-based, human
Description: Caspases (cysteine-aspartic proteases) are a family of aspartic acid residue-specific regulatory cysteine proteases that play an essential role in key cellular homeostatic processes such as inflammation and programmed cell death through the induction of apoptosis. To assess whether the biological activity of both major ethanoanthracene classes (nitrostyrene and chalcone-based) is caspase-dependent, compounds 20a and 23a (representing Series 1 and Series 4, respectively) (Figure 13) were selected for evaluation at treatment concentrations of 10 µM and 1 µM across both CLL cell lines using a caspase assay protocol. In HG-3 cells, pre-treatment with pan-caspase inhibitor (CI) Z-VAD-FMK [85] […] Little difference was found between cell viability responses (with or without the caspase inhibitor) at both 10-µM and 1-µM concentrations for compound 20a.
Compounds 20a and 23a (representing Series 1 and Series 4, respectively) were selected for evaluation at two treatment concentrations, 10 µM and 1 µM, across both HG-3 and PGA-1 CLL cells. […] The output was statistically analyzed using a one-way ANOVA with a Bonferroni multiple-comparison test. […]

[9] = system: chemosensitive MUTU-1 cell line; parameters: method as in PMID 31963567; conditions: chemosensitive MUTU-1 cell line ref 43; cited from earlier work
[10] = system: chemoresistant DG-75 cell line; parameters: method as in PMID 31963567; conditions: chemoresistant DG-75 cell line ref 43; cited from earlier work
HG-3 cells [11] = assay: alamarBlue cell viability assay; conditions: Homo sapiens, HG-3, 24 h
PGA-1 cells [12] = assay: alamarBlue cell viability assay; conditions: Homo sapiens, 24 h

SMILES: Nc1nc(F)nc2c1ncn2[C@@H]1O[C@H](COP(=O)(O)O)[C@@H](O)[C@@H]1O [fludarabine phosphate]
- increase in apoptosis [1]: 24.6%

SMILES: CC1(C)CCC(CN2CCN(c3ccc(C(=O)NS(=O)(=O)c4ccc(NCC5CCOCC5)c([N+](=O)[O-])c4)c(Oc4cnc5[nH]ccc5c4)c3)CC2)=C(c2ccc(Cl)cc2)C1 [Venetoclax]
- overall response (CLL patients): 80%

SMILES: O=C1C2C3c4ccccc4C(C=C[N+](=O)[O-])(c4ccccc43)C2C(=O)N1c1ccccc1 (stereo not drawn) [Compound 20a]
- IC50 [2]: 0.55 µM
- LDH release (cytotoxicity, % cell death) (HG-3 cells [3]): 33%
- LDH release (cytotoxicity, % cell death) (PGA-1 cells [4]): 9%
- total apoptosis (early Q3 + late Q2) (HG-3 cells [5]; HG-3, 1 µM): 82%
- total apoptosis (early Q3 + late Q2) (HG-3 cells [5]; HG-3, 10 µM): 82–95% and 95%
- total apoptosis (early Q3 + late Q2) (PGA-1 cells [6]; PGA-1, 1 µM): 83%
- total apoptosis (early Q3 + late Q2) (PGA-1 cells [6]; PGA-1, 10 µM): 87–97% and 97%
- total apoptosis (toxicity) in healthy-donor PBMCs [7]: 10–35%
- decrease in cell viability after Z-VAD-FMK pre-treatment (HG-3 cells [8]; HG-3, 1 µM compound): 2%
- decrease in cell viability after Z-VAD-FMK pre-treatment (HG-3 cells [8]; HG-3, 10 µM compound): 10%
- IC50 [9]: 0.21 µM
- IC50 [10]: 0.71 µM
- IC50 (HG-3 cells [11]; read-out: HG-3 IC50): 0.48 µM
- viability at 10 µM (HG-3 cells [11]; read-out: cell viability, HG-3, 10 µM, 24 h, vehicle = 100%): 14 to 43%
- IC50 (PGA-1 cells [12]; read-out: PGA-1 IC50): 0.61 µM
- viability at 10 µM (PGA-1 cells [12]; read-out: cell viability): 11%
